# Laboratory results published in US20060106099A1, “Novel inhibitors of ubiquitin isopeptidases” (priority 2002, published 2006).
# Read-outs that look alike come from different tables or passages of the source.
# What was measured:
# HCT 116 (p21^−/−) = assay: MTS cytotoxicity, HCT 116 (p21−/−); assay type: cell-based; details: Homo sapiens, log of EC50 in μM, 48 h, read-out: Log EC50 +/− Standard Error of Log EC50, HCT 116 (p21−/−) (converted)
# From the text: (§1) Cytotoxicity in Human Colon Tumor (HCT) Cell Lines. To determine if punaglandins elicit cytotoxicity independently of the tumor-suppressor p53, as do other dienone prostaglandins, several cytotoxicity assays were employed. First, cell death effects of all isolated punaglandins were investigated in pairs of isogenic colon cancer cell lines, the HCT 116^+/+ competent cell line and HCT 116^−/− null cell lines. HCT 116^+/+ cells are homozygous for p53^+/+ and p21^+/+; where as, HCT 116^−/− cells lack both alleles for p53 (p53^−/−) or p21 (p21^−/−).
# (§2) Each cell line was seeded simultaneously in 96-well plates and incubated for 24 h before treatment with individual punaglandins at various concentrations for 48 additional h. Cytotoxicity was determined using MTS and absorbances were recorded at 490 nm. Half maximal effective concentrations (EC50) and Log EC50s were calculated from a concentration-response curve generated using GraphPad Prism (Table 1).
# RKO-E6 = assay: MTS cytotoxicity, RKO-E6 cells; assay type: cell-based; details: Homo sapiens, RKOE6, log of EC50 in μM, 48 h, read-out: Log EC50 +/− Standard Error of Log EC50, RKO-E6 (converted)
# Method: (§3) Cytotoxicity in Human Colon Tumor (RKO) Cell Lines. Punaglandins (8) and (10) were also assayed for p53-independent cytotoxicity in RKO and RKO-E6 cells. Each cell line was seeded simultaneously in 96-well plates and incubated for 24 h before treatment with PNG 4 (8) and PNG 6 (10) at various concentrations for 48 h. Cytotoxicity was determined using MTS and absorbances were recorded at 490 nm. Log EC50s and EC50s were calculated from a concentration-response curve generated using GraphPad Prism (Table 2).
# caspase-3 = assay: Caspase-3 activity in RKO cells (DEVD-AMC); assay type: cell-based, human; details: PNG 4 0.5 μM, PNG 6 1 μM, Taxol 1 μM
# Method: To determine if selected punaglandins, PNG 4 (8) and PNG 6 (10) also induce apoptosis in RKO cells in a time dependent manner, caspase-3 activity was determined. During apoptosis the caspases, a family of cysteinyl aspartate-specific proteases, are activated. These enzymes cleave specific substrates resulting in biochemical and morphological changes associated with apoptosis. Therefore, detection of activated caspases can be used as a biochemical marker for apoptosis. Caspase-3 has substrate specificity for the amino acid sequence Asp-Glu-Val-Asp (DEVD), cleaving after Asp, and therefore caspase activity can be measured by monitoring cleavage of the substrate DEVD-AMC (Asp-Glu-Val-Asp-7-amino-4-[…]).
# RKO cells were treated for 4, 8, and 12 h with PNG 4 (8) at 0.5 μM and PNG 6 (10) at 1 μM. Taxol, a known apoptotic inducer at 1 μM, was used as a positive control, and negative control cells were treated with vehicle (0.5% DMSO). Caspase-3 activity rose steadily as expected from 4-12 h in cells treated with PNG 4 (8), PNG 6 (10), and Taxol but remained constant in the untreated control cells.
# RKO = assay: MTS cytotoxicity, RKO cells; assay type: cell-based; details: Homo sapiens, 48 h
# Method: as §3
# HCT 116 (p53^−/−) = assay: MTS cytotoxicity, HCT 116 (p53−/−); assay type: cell-based; details: Homo sapiens, log of EC50 in μM, 48 h, read-out: Log EC50 +/− Standard Error of Log EC50, HCT 116 (p53−/−) (converted)
# From the text: as §1, §2
# p53 = p53 accumulation ratio in RKO-E6 and RKO cells, punaglandin study; assay type: cell-based, human; details: 7 μM, 6 h
# Method: To determine if punaglandins inhibit p53 degradation by disrupting the proteasome pathway, the accumulation ratio of p53 was determined in RKO and RKO-E6 cells treated with selected punaglandins, PNG 4 (8) and PNG 6 (10). Equally seeded RKO and RKO-E6 cells were treated with vehicle (0.5% DMSO), 50 μM Etoposide, 60 μM PGA2 (3), 7 μM PNG 6 (10), and 7 μM PNG 4 (8). After 6 h incubation with vehicle or drug, cells were lysed and harvester. […] of protein from each lysate was fractionated by SDS-PAGE and probed for p53 protein. The p53 band intensities were then analyzed and quantitated using densitometry. The ratio of p53 in RKO-E6 to RKO cells was calculated by dividing the amount of p53 in RKO-E6 cells by the amount in RKO cells and multiplying by 100 to give percent
# HCT 116 (p53 wt) = assay: MTS cytotoxicity, HCT 116 (p53 wt); assay type: cell-based; details: Homo sapiens, 48 h
# From the text: as §1, §2
# ubiquitin isopeptidases = assay: In vivo isopeptidase activity after treatment of RKO cells, Ub-PEST; assay type: cell-based, human
# Method: Isopeptidase Assay. It was hypothesized that the punaglandins would inhibit ubiquitin-isopeptidase activity of the proteasome pathway as does the prostaglandin, Δ^12-PGJ2 (1), but with greater potency because of the chlorinated C-10. To validate this theory, cellular isopeptidase enzymatic activity was measured in vitro after treatment with individual punaglandins, PNG 2 (6), PNG 3 (7), and Z-PNG 4 (9) and in vivo after individual treatment with PNG 4 (8) and PNG 6 (10). This activity was determined utilizing the simple isopeptidase substrate, ubiquitin-PEST (Ub-PEST), a full/length ubiquitin (Ub) molecule fused with an 18-amino acid C-terminal peptide extension that most isopeptidases use as a substrate. The polypeptide extension contains regions rich in Pro (P), Glu (E), Ser (S), and Thr (T) residues called PEST motifs that are responsible for rapid degradation of these and other unstable proteins. Ub isopeptidases specifically cleave this peptide extension, yielding free, full-length Ub. Both the fused Ub-PEST (10.5 kDa) and the cleaved, free Ub (8.5 kDa) can be observed via immunochemical detection.
# In vivo Isopeptidase Activity. To investigate whether punaglandins can inhibit isopeptidase activity in vivo, isopeptidase activity was analyzed after punaglandin treatment of RKO cells. PNG 4 (8) and PNG 6 (10) were selected for in vivo investigation because they differ only in enone functionality, where (8) is a dienone and (10) an enone. RKO cells were incubated with 1 μM, 4 μM, or 7 μM of PNG 4 (8) and PNG 6 (10). […] As a positive control, cells were treated with a known isopeptidase inhibitor, shikoccin (SK). After 6 h drug treatment, cells were lysed and protein concentration adjusted to 0.3 mg/mL per sample. Each sample was subsequently incubated with 50 μg/mL of Ub-PEST. The reaction was terminated after 20 min and the respective amounts of Ub-PEST (10 kDa) and free Ub product (8.5 kDa) were determined by SDS-PAGE fractionation.
# HCT 116 (p21 wt) = assay: MTS cytotoxicity, HCT 116 (p21 wt); assay type: cell-based; details: Homo sapiens, log of EC50 in μM, 48 h, read-out: Log EC50 +/− Standard Error of Log EC50, HCT 116 (p21 wt) (converted)
# From the text: as §1, §2
smiles,measurement,setting,value
CCCCC/C=C\C[C@@]1(O)C=C(Cl)C(=O)/C1=C/[C@H](OC(C)=O)[C@H](CCCC(=O)OC)OC(C)=O [PNG 4],EC50,HCT 116 (p21^−/−),0.282 µM
same,EC50,RKO-E6,0.372 µM
same,Caspase-3 activity from 4-12 h,caspase-3,rose steadily
same,EC50,"RKO; read-out: EC50 in RKO cell lines, punaglandins",0.31 µM
same,EC50,"RKO; log of EC50 in μM, read-out: Log EC50 +/− Standard Error of Log EC50, RKO (converted)",0.309 µM
same,EC50,HCT 116 (p53^−/−),0.355 µM
same,accumulation of p53 in RKO and RKO-E6 cells,p53,showed enhanced accumulation of p53
same,EC50,"HCT 116 (p53 wt); average over the three compounds, read-out: average EC50 of PNG 3, PNG 4 and PNG 6, cytotoxicity in HCT 116 cell lines",~0.35 µM
same,EC50,"HCT 116 (p53 wt); log of EC50 in μM, read-out: Log EC50 +/− Standard Error of Log EC50, HCT 116 (p53 wt) (converted)",0.331 µM
same,"Ub-Pest degradation, % of the control (densitometry)","ubiquitin isopeptidases; 7 μM, 6 h",67%
same,concentration of noticeable inhibition of Ub-PEST degradation,ubiquitin isopeptidases; 6 h treatment,7 µM
same,EC50,HCT 116 (p21 wt),0.339 µM
